Reference: patent US6765014B1, “1-Acyl-7-nitroindoline derivatives, their preparation and their use as photocleavable precursors” (Medical Research Council, priority 1999, dated 2004)

Assays:
[1] = Quantum yield estimation by laser flash irradiation (347 nm); type: physicochemical
Method: Quantum yield estimation for 10. A solution of 1-(2-nitrophenylethyl) phosphate and 10 (each 0.50 mM) together with dithiothreitol (5 mM) was prepared in 25 mM ammonium phosphate, pH 7.0. Aliquots of the solution ([…]) in a 1-mm path length cell were each subjected to one 50-ns flash from a frequency-doubled ruby laser, that delivered 347 nm light with an average energy of 90 mJ (range 83-104 mJ). The combined irradiated solutions were analyzed by reverse-phase HPLC (mobile phase 25 mM Na phosphate, pH 6.0+40% MeOH, 1.5 ml/min). Retention times were 4.2 and 7.2 min for 10 and 1-(2-nitrophenylethyl) phosphate respectively. Quantification was based on peak heights compared to those of the unphotolyzed control. Extinction coefficients at 347 nm used to calculate the relative quantum yields were 2720 and 510 M^−1cm^−1 for 10 and 1-(2-nitrophenylethyl) phosphate respectively. Photolysis and product analysis for compounds 10 and 18.
The product quantum yield (Qp) for photolysis of the glutamate derivative 10 was determined by laser flash irradiation (347 nm) of a solution containing 10 and 1-(2-nitrophenyl)ethyl phosphate (16) (both 0.5 mM in pH 7 phosphate buffer). Conversions by a single flash (˜90 mJ) were 9.7 and 23% respectively (reverse-phase HPLC), leading to Qp=0.043 by comparison with the known value (16) (0.54) for the caged phosphate and after correction for the different extinction coefficients at the irradiation wavelength. Although the value of Qp is low, the relatively high extinction coefficient at ˜350 nm (˜2700 M^−1cm^−1) compared to that of “classical” 2-nitrobenzyl-type caged compounds (˜600 M^−1cm^−1) enables similar photolytic efficiency to be achieved.

[2] = literature value (16); cited from earlier work
[3] = Relative photolysis efficiencies of 8 and 11 (xenon arc lamp, HPLC); type: physicochemical; details: after 2 min irradiation, 0.5 mM each, 25 mM Na phosphate pH 7.0, 100 W xenon arc lamp
Method: Relative photolysis efficiencies of 8 and 11. A solution containing both 8 and 11 (each 0.5 mM) in 25 mM Na phosphate, pH 7.0 was irradiated in a 1-mm path length cell using light from a 100 W xenon arc lamp which passed through Hoya 340 and Schott WG 305 filters before. illuminating the cell. The extent of photolysis of each compound was determined by reverse-phase HPLC analysis (mobile phase 10 mM Na phosphate, pH 6.0+50% MeOH, 1.5 mL/min). Retention times for 8 and 11 were 3.8 and 7.8 min respectively. After 2 min irradiation, the extents of conversion for compounds 8 and 11 were 40 and 16% respectively.
(§1) Upon comparative photolysis of the 1-glutaryl derivatives 8 and 11 in aqueous solutions at pH 7 and without excluding atmospheric oxygen, the bromo compound 11 was indeed converted ˜2.5-fold less efficiently than 8. Photolysis of 8 proceeded cleanly, as shown by an isosbestic point at 365 nm in spectra of a solution photolyzed for increasing times to at least 65% conversion, but the photoproduct of the protecting group was not the 7-nitroindoline 12 (λmax 450 nm) expected from the previous report (6a). […] Further confirmation of the presence of a nitroso group was that treatment of 13, R=CH2CO2Me) with a thiol readily abolished the 412 nm chromophore, presumably by conversion to the corresponding hydroxylamine (11, 12). […] In control experiments, photolysis of the glutaryl compound 8 in CH2Cl2-dioxane-H2O (2:3:0.05) cleanly gave the expected (6a) nitroindoline 12.

[4] = Flash photolysis with time-resolved UV-VIS absorption spectroscopy, proton release (pH indicator); type: physicochemical; details: 320 nm laser, 1 ms pulse, 20° C.
Excerpt: (§2) Formation of different products in different solvents requires a change of mechanism and there is some precedent for photoreactivity of nitroaryl compounds in aqueous solution that was not observed in organic solvents. […] Second, we have investigated the kinetics of product formation, specifically of the released proton and carboxylate. […] The latter process may correspond with the slow phase of proton release described above. An overlapping band on the high-frequency side of the main 1553 cm^−1 band makes definitive interpretation of the signals uncertain.

[5] = Analytical photolysis of 8 in organic and aqueous solvents; type: physicochemical; details: CH2Cl2-dioxane-H2O mixture vs aqueous solution, equimolar solutions
Method: Analytical photolysis of 8 in organic and aqueous solvents. Solutions (˜[…]) of 8 in either CH2Cl2-dioxane-H2O (2:3:0.05) or 25 mM Na phosphate, pH 7.0 were irradiated in air for times between 0 and 16 min in a 1-cm path length cell with light from a 100 W xenon arc lamp, filtered through a Hoya 340 filter.
as §1

[6] = Hydrolytic stability of 1-acyl-7-nitroindolines (reverse-phase HPLC); type: physicochemical; details: 62.5 mM Na phosphate, pH 12.01, 30° C.
Method: The extent of hydrolysis was determined by reverse-phase HPLC analysis (mobile phase 25 mM Na phosphate, pH 6.0+10% MeOH, 1.5 ml/min). […] Quantification was based on peak heights compared to those of unhydrolysed controls (to). First-order rate constants for hydrolysis were obtained from single exponential fits to the data.
In addition to the release rate of the bioeffector species following flash irradiation, important properties of any caged compound include stability in aqueous solution and its extent of photolysis upon a single flash irradiation.
In this context, hydrolytic stability refers to the amide bond. […] The use of the free acids avoided analytical complications from the much faster cleavage of the ester group.

[7] = Flash photolysis with time-resolved IR measurements, carboxylate formation; type: physicochemical; details: 1557 cm^−1, 351 nm laser, 9 ns pulse, 25° C., pH 7
Excerpt: as §2

[8] = tested on: glutamate ion channels; assay: Whole-cell patch clamp of cultured rat cerebellar granule neurones, with and without flash photolysis; type: cell-based; details: with and without iontophoretic application of L-glutamate
Method: The caged L-glutamate reagent 10 was tested in primary cultures of rat cerebellar granule neurones for its pharmacological actions and ability to effect photolytic activation of glutamate ion channels. All electrophysiological experiments were performed in Mg^2+-free mammalian Ringer's solution containing 100 μM glycine. Cells were voltage clamped at −65 mV with whole-cell patch clamp (17) and the glutamate sensitivity was established by responses to 20 ms pulses of L-glutamate, applied at a frequency of 0.25 Hz by iontophoresis from a 1-μm tipped glass pipette. […] The latter most likely arises from glutamate diffusion away from the photolyzed region. The time course of the initial decline may represent desensitization of non-NMDA glutamate channels.
During the slow decline there was a clear increase in the low frequency noise of the glutamate-activated current compared to baseline, consistent with gating of glutamate-activated ion channels.

[9] = Water solubility (stated in words); type: physicochemical
[10] = pH 7,21° C.; cited from earlier work

CC(OP(=O)(O)O)c1ccccc1[N+](=O)[O-] (stereo not drawn) [1-(2-nitrophenylethyl) phosphate, 1-(2-Nitrophenylethyl) phosphate, reference compound]
Conversion by a single flash ([1]; 347 nm laser flash, ~90 mJ, 0.5 mM, pH 7 phosphate buffer): 23%
Extinction coefficient at 347 nm ([1]; used to calculate relative quantum yields): 510 M⁻¹ cm⁻¹
Product quantum yield, known value [2]: 0.54

COC(=O)Cc1cc2c(c([N+](=O)[O-])c1)N(C(=O)CCCC(=O)O)CC2 [Compound 8, Methyl 1-glutaryl-7-nitroindoline-5-acetate]
Extent of conversion (photolysis) [3]: 40%
Proton release, rate of smaller component ([4]; pH 7): ~9 s⁻¹
Proton release, time course of major component ([4]; pH 7): complete within the laser pulse
Proton release, major component share of signal ([4]; pH 7, Bromothymol Blue): ~85%
Fold more efficient photolysis in organic solvent than in water [5]: at least 2 fold

COC(=O)Cc1cc2c(c([N+](=O)[O-])c1)N(C(=O)CCCCOP(=O)(O)O)CC2 [Compound 9]
Half-times for hydrolysis (amide hydrolysis) [6]: 29 h
Carboxylate formation, exponential rate of major component [7]: ~2700 s⁻¹
Carboxylate formation, exponential rate of minor component [7]: ~10 s⁻¹
Carboxylate formation, major component share of absorption increase [7]: ~80%
Effect of the caged compound before, during and after photolysis [8]: no effect
Water solubility [9]: highly water-soluble

N-carboxyglutamate
Decarboxylation rate k [10]: ~150 s⁻¹
